# Results reported in PubChem BioAssay AID2060352 (Molecular Pharmacology Branch, DTP, NCI, 2025).
# “And” between values parts separate entries of the source, which are not always exact repeats. Equal values may be shown once.
# Tested on: 616215-338-R-J1-PDC spheroid with HUVEC/MSC, viability
# Assay: Anticancer human tumor 616215-338-R-J1-PDC patient-derived colon adenocarcinoma cell line growth inhibition [TAK]
# Conditions: for viability, T/C: stronger effect = lower value
# Excerpt: Combinatorial screen of targeted agents with TAK-243 and ipatasertib in multi-cell type tumor spheroids
# A high-throughput screen of multi-cell type tumor spheroids was designed to identify active combinations of targeted small molecules and TAK-243 or ipatasertib. Complex spheroids include a stromal component modeled by human endothelial cells (HUVEC) and fibroblasts modeled by human mesenchymal stem cells (MSCs). The concentration ranges selected for each drug and investigational agent were based upon clinically achievable concentrations if the clinical Cmax of the agent was known.
# Compounds. The drugs and investigational agents: TAK-243 (785004), ipatasertib (767898), everolimus (733504), selumetinib (741078), bortezomib (756655), trametinib (758246), ixazomib (758254), vemurafenib (761431), dabrafenib (764134), sapanisertib (764658), alpelisib (765974), and copanlisib (816437), were obtained from the National Cancer Institute (NCI) Developmental Therapeutics Program Chemical Repository. The FDA-approved anticancer drug set is available from the NCI Developmental Therapeutics Program. […] The stock solutions were prepared in dimethyl sulfoxide (DMSO, Sigma-Aldrich, St. Louis, MO, cat. D2650) at 800-fold the tested concentration and stored at -70 degrees C prior to their use. All drugs and investigational agents were tested over a range starting from a high concentration at or near the clinical Cmax and decreasing in half-log increments. If the clinical Cmax for an agent had not been determined, the highest concentration tested was 10 microM.
# NCI60 Cell Culture. NCI60 cell lines were obtained from the NCI Developmental Therapeutics Program Tumor Repository. For each lot of cells, the Repository performed Applied Biosystems AmpFLSTR Identifiler testing with PCR amplification to confirm consistency with the published Identifier STR profile for each cell line. Cells were kept in continuous culture for no more than 20 passages. The optimal seeding densities for each of the cell lines at each time point assessed were determined prior to performing the concentration response studies. Briefly, the NCI60 human tumor lines were grown as monolayers in RPMI 1640 medium supplemented with 10% FBS and 2 mmol/L L-glutamine.
# An additional 2 lines were from the NCI60 cell line panel including melanomas, MALME-3M and SK-MEL-2. Pooled donor human umbilical vein endothelial cells (HUVEC, Lonza, cat. CC-2519) and human mesenchymal stem cells (hMSC, Lonza, cat. PT-2501) were purchased from Lonza (Walkersville, MD).
# PDMR cell lines were grown in complete medium (DC medium): Dulbecco's modified Eagle's medium (DMEM)/F12 supplemented with 5% fetal bovine serum (FBS), 2 mM L-glutamine, 100 U/mL penicillin and 100 µg/ml streptomycin, 0.4 µg/ml hydrocortisone, 10 ng/ml epidermal growth factor (EGF) recombinant human protein, 24 µg/mL adenine, and 0.1 mg/mL primocin. During culture from frozen stock vials, PDMR cells were cultured in the same medium containing 10 µM Y-27632 (see Table 3). The PDCs were cultured in complete DMEM/F12 media without 10 microM Y-27632 dihydrochloride for at least two passages prior to the screen. The pooled donor HUVEC and hMSC were cultured in endothelial cell growth medium 2 (PromoCell, Heidelberg, Germany, cat. C-22011) and mesenchymal stem cell growth medium 2 (PromoCell, cat. C-28009), respectively. For all experiments, HUVEC and hMSC were used at passages </=5.
# For the pre-screen, cell seeding densities were determined from a titration spanning the range from 5,000 to 313 cells per well. The mct-spheroids including 60% malignant cells, 25% HUVEC and 15% MSC dispensed as a mixture into U-bottom Ultra-Low Attachment 384-well plates (Corning, NY)
# High-throughput Drug Combination Screening.
# Prior to their inoculation into 384-well plates, malignant cells, HUVEC, and hMSC were removed from T flasks using TrypLE express (Thermo Fisher Scientific, cat. 12605036) and harvested by centrifugation for 5 min at 233 x g. […]
# 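Also: spheroids exposed to drugs for 7 days before readout.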
structure (smiles),measurement,setting,value
Cc1nc(NC(=O)N2CCCC2C(N)=O)sc1-c1ccnc(C(C)(C)C(F)(F)F)c1 (stereo not given) + CC(C)NCC(C(=O)N1CCN(c2ncnc3c2C(C)CC3O)CC1)c1ccc(Cl)cc1,IC50,"curve of first compound, second compound 0.3 µM",> 10000 nM
same,IC50,"curve of first compound, second compound 0.949 µM",> 10000 nM
same,IC50,"curve of first compound, second compound 3 µM",2760 nM
same,IC50,"curve of first compound, second compound 9.49 µM",< 31.6 nM
same,IC50,"curve of first compound, second compound 30 µM",< 31.6 nM
same,"viability, T/C","second compound 0.3 µM, first compound 0.0316 µM",101%
same,"viability, T/C","second compound 0.3 µM, first compound 0.1 µM",113%
same,"viability, T/C","second compound 0.3 µM, first compound 0.316 µM",127%
same,"viability, T/C","second compound 0.3 µM, first compound 1 µM",112%
same,"viability, T/C","second compound 0.3 µM, first compound 3.16 µM",119%
same,"viability, T/C","second compound 0.3 µM, first compound 10 µM",83.3%
same,"viability, T/C","second compound 0.949 µM, first compound 0.0316 µM",120%
same,"viability, T/C","second compound 0.949 µM, first compound 0.1 µM",119%
same,"viability, T/C","second compound 0.949 µM, first compound 0.316 µM",128%
same,"viability, T/C","second compound 0.949 µM, first compound 1 µM",119%
same,"viability, T/C","second compound 0.949 µM, first compound 3.16 µM",110%
same,"viability, T/C","second compound 0.949 µM, first compound 10 µM",51.3%
same,"viability, T/C","second compound 3 µM, first compound 0.0316 µM",94.9%
same,"viability, T/C","second compound 3 µM, first compound 0.1 µM",91%
same,"viability, T/C","second compound 3 µM, first compound 0.316 µM",80%
same,"viability, T/C","second compound 3 µM, first compound 1 µM",52.2%
same,"viability, T/C","second compound 3 µM, first compound 3.16 µM",59.3%
same,"viability, T/C","second compound 3 µM, first compound 10 µM",37.8%
same,"viability, T/C","second compound 9.49 µM, first compound 0.0316 µM",28%
same,"viability, T/C","second compound 9.49 µM, first compound 0.1 µM",27.4%
same,"viability, T/C","second compound 9.49 µM, first compound 0.316 µM",25.1%
same,"viability, T/C","second compound 9.49 µM, first compound 1 µM",24.9%
same,"viability, T/C","second compound 9.49 µM, first compound 3.16 µM",21.5%
same,"viability, T/C","second compound 9.49 µM, first compound 10 µM",16.1%
same,"viability, T/C","second compound 30 µM, first compound 0.0316 µM",14.2%
same,"viability, T/C","second compound 30 µM, first compound 0.1 µM",14.4%
same,"viability, T/C","second compound 30 µM, first compound 0.316 µM",11.4%
same,"viability, T/C","second compound 30 µM, first compound 1 µM",11.3%
same,"viability, T/C","second compound 30 µM, first compound 3.16 µM",10%
same,"viability, T/C","second compound 30 µM, first compound 10 µM",6.48%
CCCS(=O)(=O)Nc1ccc(F)c(C(=O)c2c[nH]c3ncc(-c4ccc(Cl)cc4)cc23)c1F,"viability, T/C",compound 0.316 µM,110% and 87.2%
same,"viability, T/C",compound 1 µM,99.9% and 99.5%
same,"viability, T/C",compound 3.16 µM,90.2% and 81%
same,"viability, T/C",compound 10 µM,16.4% and 24.1%
same,"viability, T/C",compound 31.6 µM,106% and 4.96%
same,"viability, T/C",compound 100 µM,64.9% and 98.7%
CC(C)NCC(C(=O)N1CCN(c2ncnc3c2C(C)CC3O)CC1)c1ccc(Cl)cc1 (stereo not given),"viability, T/C",compound 9.49 µM,26.9% [middle of 10 runs]
same,"viability, T/C",compound 30 µM,12.7% [middle of 10 runs]
same,IC50,"compound alone, run of 02/20/2020",6.46 µM [middle of 5 runs]
same,IC50,"compound alone, run of 03/19/2020",5.01 µM [middle of 5 runs]
CC(=O)Nc1cccc(-n2c(=O)n(C3CC3)c(=O)c3c(Nc4ccc(I)cc4F)n(C)c(=O)c(C)c32)c1,"viability, T/C",compound 94.9 pM,97% and 104%
same,"viability, T/C",compound 0.0003 µM,110% and 106%
same,"viability, T/C",compound 0.000949 µM,134% and 90.8%
same,"viability, T/C",compound 0.003 µM,90.5% and 64%
same,"viability, T/C",compound 0.00949 µM,33.2% and 29.1%
same,"viability, T/C",compound 0.03 µM,5.55% and 17.7%
same,IC50,curve of compound,6.78 nM and 4.71 nM
CC(C)CC(NC(=O)C(Cc1ccccc1)NC(=O)c1cnccn1)B(O)O (stereo not given),"viability, T/C",compound 31.6 pM,98.1% and 102%
same,"viability, T/C",compound 0.0001 µM,115% and 110%
same,"viability, T/C",compound 0.000316 µM,101% and 108%
same,"viability, T/C",compound 0.001 µM,92.3% and 103%
same,"viability, T/C",compound 0.00316 µM,107% and 102%
same,IC50,curve of compound,> 10 nM and 5.79 nM
COc1c(OCCCN2CCOCC2)ccc2c3n(c(=NC(=O)c4cnc(N)nc4)nc12)CCN3,"viability, T/C",compound 0.00316 µM,108% and 106%
same,"viability, T/C",compound 0.01 µM,108% and 113%
same,"viability, T/C",compound 0.0316 µM,117% and 114%
same,"viability, T/C",compound 0.1 µM,57.7% and 54.2%
same,"viability, T/C",compound 0.316 µM,27.8% and 31.5%
same,"viability, T/C",compound 1 µM,17.4% and 16.5%
same,IC50,curve of compound,129 nM and 118 nM
